Here are results for 3 compounds from patent US4354973A, “Pyrrolo[3,4-d][2]benzazepines” (Hoffmann-La Roche Inc., priority 1981, dated 1982).

Series [1] concerns mice. In words: Footshock (fighting episodes of pairs of mice). Type of series: in vivo. Particulars: Mus musculus; pairs of mice pretreated 1 hour prior to second shocking; 3 out of 3 pairs blocked from fighting; read-out: Footshock, 100% blocking dose. Here is the method:
A pair of mice is confined under a one liter beaker placed on a grid which presents shock to the feet. At least 5 fighting episodes are elicited in a two-minute period. Pairs of mice are marked and pretreated 1 hour prior to a second shocking. Logarithmic dose intervals are utilized up to a maximum of 100 mg/kg. At the 100% blocking dose, 3 out of 3 pairs must be blocked from fighting.

The test system of series [2] is male mice. Briefly: Inclined Screen (paralyzing effects). Type of series: in vivo. Particulars: Mus musculus; groups of 6 male mice; at least 4 hours observation; maximum dose 500 mg/kg; read-out: Inclined Screen, PD50. How it is done: Groups of 6 male mice are given the test drug (maximum dose of 500 mg/kg) and then are left on the inclined screen at least 4 hours for observation of paralyzing effects severe enough to cause them to slide off the screen. If activity is observed, additional doses are taken until at least two are reached at which some, but not all of the animals slide off the screen. Doses at which mice fall off the screen due to toxicity or excitation are not included in the calculation of PD50.

In series [3] the test system is Cats. In words: Unanesthetized Cat (minimum symptoms, usually ataxia). In kind it is in vivo. Particulars: Felis catus, oral, up to three cats/dose. Here is the method: Cats are treated orally and observed for minimum symptoms-usually ataxia. One cat is used at a dose of 50 mg/kg. If activity is present, up to three cats/dose are used. Results are given as minimum effective dose.

Series [4] in a line: Toxicity (LD50). The note with it: in vivo, po.

On to `CS(=O)(=O)O.Cc1[nH]cc2c1-c1ccc(Cl)cc1C(c1ccccc1F)=NC2` [8-Chloro-6-(2-fluorophenyl)-1-methyl-2H,4H-pyrrolo[3,4-d][2]benzazepine methanesulfonate], for which, in series [1], the ED100 amounted to 2 mg/kg. For the same compound, the ED50 in series [2] amounted to 400 mg/kg. Moreover, in series [3], the minimal effective dose was determined as 2.5 mg/kg. In series [4], the median lethal dose (LD50) was over 1000 mg/kg.
`Clc1ccc2c(c1)C(c1ccccc1)=NCc1c[nH]cc1-2` [8-Chloro-6-phenyl-2H,4H-pyrrolo[3,4-d][2]benzazepine]: in series [1], the ED100 was 25 mg/kg. In series [2], the ED50 stood at 400 mg/kg. In series [3], this compound registered a minimal effective dose of 2.5 mg/kg. For the same compound, the median lethal dose (LD50) in series [4] was over 1000 mg/kg.
The corresponding values for `Clc1ccc2c(c1)C(c1ccccc1Cl)=NCc1c[nH]cc1-2` [8-Chloro-6-(2-chlorophenyl)-2H,4H-pyrrolo[3,4-d][2]benzazepine] are 1 mg/kg, 400 mg/kg, 0.25 mg/kg and over 1000 mg/kg.

Broadly, the minimal effective dose is the smallest amount tested that counted as effective. The LD50 is the dose at which mortality reaches 50%.
